Measurements from patent US6558900B2, “Regulation of apoptosis and in vitro model for studies thereof” (Emory University, priority 1996, dated 2003).
“Also recorded” adds a separate entry of the source.

What was measured:
CPP32 = test: Activation of endogenous CPP32 in HeLa cell S-100 (Western blot; cleavage of 35S-labeled PARP and SREBP-2); format: biochemical, human; settings: 1 mM nucleotide, 30° C., 1 hr, Western blot
Experimental: (§1) FIGS. 1A-1D illustrate dATP-dependent activation of CPP32 and DNA fragmentation in vitro. Aliquots (10 μl) of HeLa cell S-100 (50 μg) were incubated alone (lane 1), in the presence of 1 mM ATP (lane 2), or in the presence of 1 mM dATP (lane 3) at 30° C. for 1 hr in a final volume of 20 μl of buffer A. FIG. 1A, samples were subjected to SDS-PAGE and transferred to a nitrocellulose filter, probed with a monoclonal anti-CPP32 antibody, and the antigen/antibody complex was visualized by the ECL method. The filter was exposed to Kodak X-OMAT AR X-ray film for 1 min. In FIG. 1B, an aliquot of 10 μl of in vitro translated, ^35S-labeled PARP was added to each reaction. After 5 min, the samples were subjected to SDS-PAGE and transferred to a nitrocellulose filter. The filter was exposed to film for 2 hr at room temperature. In FIG. 1C, a 5 μl aliquot of in vitro translated, ^35S-labeled SREBP-2 was added to each reaction. After incubation at 30° C. for 30 min, the samples were subjected to SDS-PAGE, the gel was dried and exposed to film for 2 hr at room temperature. In FIG. 1D, a 50 μlaliquot of HeLa cell S-100 (250 μg) was incubated with 6 μl Hamster Liver nuclei in the absence (lane 1), or presence of 1 mM ATP (lane 2) or dATP (lane 3) for 2 hr at 37° C. in a final volume of 60 μl of buffer A. DNA was isolated as described in the Examples and size-separated by agarose gel electrophoresis (2% agarose), and the DNA was visualized by ethidium bromide staining.
Activation of CPP32 and DNA fragmentation are two well characterized biochemical markers of apoptosis and its initiation. With the goal of producing an in vitro system that duplicates apoptosis, we prepared 100,000×g cytosolic supernatant (S-100) from suspension cultures of HeLa cells. The activation of CPP32 is the result of cleavage of its 32 kDa precursor into the 20 kDa NH2-terminal fragment and 11 kDa COOH-terminal fragment [Nicholson et al. (1995) supra], thus the activation of CPP32 in the HeLa cell S-100 was monitored by Western blot analysis using a monoclonal antibody against the 20 kDa fragment of CPP32 (FIG. 1A). The enzymatic activity of CPP32 was assayed by measuring the cleavage of two ^35S-labeled substrates, PARP (FIG. 1B) and SREBP-2 (FIG. 1C). DNA fragmentation was assayed by incubating the HeLa cell S-100 with nuclei isolated from hamster liver followed by genomic DNA extraction and analysis by agarose gel electrophoresis. […] The sizes of the cleaved products of PARP and SREBP-2 were the same as observed in cells undergoing apoptosis [Kaufmann et al. (1993) Cancer Res. 53, 3976-3985; Wang et al. (1996) supra]. […]

hamster liver nuclei = test: DNA fragmentation assay (HeLa S-100 incubated with hamster liver nuclei); format: biochemical; settings: 1 mM nucleotide, 37° C., 2 hr
Experimental: as §1, with “In FIG. 1D, a 50 μlaliquot of HeLa cell S-100 (250 μg) was incubated with 6 μl Hamster Liver nuclei in the absence (lane 1), or presence of 1 mM ATP (lane 2) or dATP (lane 3) for 2 hr at 37° C. in a final volume of 60 μl of buffer A. DNA was isolated as described in the Examples and size-separated by agarose gel electrophoresis (2% agarose), and the DNA was visualized by ethidium bromide staining.” left out
FIGS. 2A-2B illustrate the nucleotide specificity for in vitro activation of CPP32 and DNA fragmentation. […] The DNA was isolated, analyzed by 2% agarose gel electrophoresis and visualized by ethidium bromide staining. […]

HeLa cells = test: Staurosporine treatment of HeLa cells: cytochrome c in S-cytosol and PARP cleavage; format: cell-based, human; settings: 1 μM, 6 hr
Experimental: HeLa cells were treated as described in FIG. 9. On day 2, staurosporine at a final concentration of 1 μM was added to the medium as indicated. After incubation at 37° C. for 6 hr, the cells were harvested and S-cytosols were prepared as described in FIG. 9. In FIG. 10A, a 50 μg aliquot of HeLa cell S-100 as in FIGS. 1-7 (lane 1), or S-cytosol from HeLa cells (lane 2), or S-cytosol from HeLa cells treated with staurosporine for 6 hr. In lane 4, aliquot of 0.2 μg of Apaf-2 purified through Mono S column step. Proteins were separated using 15% SDS-PAGE, transferred to a nitrocellulose filter, and probed with a monoclonal anti-cytochrome c antibody and the antigen/antibody complex was visualized by the ECL method as described herein. Kodak X-OMAT AR X-ray film was exposed for 15 seconds. The arrow denotes the position of cytochrome c; X denotes protein bands cross-reacting with this antibody. In FIG. 10B, aliquots containing 4.5 μg of S-cytosol from HeLa cells (−staurosporine) or HeLa cells treated with 1 μM staurosporine for 6 hr (+staurosporine) were incubated with 10 μl aliquots of in vitro translated, 35S-labeled PARP for 30 min at 30° C. in a volume of 20 μl of buffer A. Samples were then subjected to 12% SDS-PAGE, transferred to a nitrocellulose filter, and film was exposed for 4 hr at room temperature.
HeLa cells were treated with staurosporine. […]

U937 cells = test: Staurosporine treatment of human monoblastic U937 cells; format: cell-based
variety of cell types = settings: cited from earlier work

SMILES	activation of CPP32 in HeLa cell S-100 (CPP32)	DNA fragmentation in hamster liver nuclei (hamster liver nuclei)	activation of endogenous CPP32 detected by cleavage of PARP (HeLa cells)	cytochrome c in S-cytosol (HeLa cells; vs non-treated cells)	cytochrome c in cytosol / CPP32 activation (U937 cells)	initiation of apoptosis (variety of cell types)
Nc1ncnc2c1ncn2[C@@H]1O[C@H](COP(=O)(O)OP(=O)(O)OP(=O)(O)O)[C@@H](O)[C@H]1O [ATP]	no activation of CPP32 was observed	Such fragmentation did not occur	–	–	–	–
CN[C@@H]1C[C@H]2O[C@@](C)([C@@H]1OC)n1c3ccccc3c3c4c(c5c6ccccc6n2c5c31)C(=O)NC4 [staurosporine]	–	–	resulted in activation of the endogenous CPP32	increased release of cytochrome c to the cytosol; also recorded: markedly elevated cytochrome c; also recorded: increased cytosolic cytochrome c	The same phenomenon was also observed	potent apoptosis inducer
